Measured values taken from patent US11834458B2, “Anti-cancer nuclear hormone receptor-targeting compounds” (Nuvation Bio Inc., priority 2021, dated 2023).
Where two headings read alike, the source gives them in different places.

Tests used:
[1] = molecular target: ER Alpha-ligand binding domain (LBD) (Homo sapiens (Human), UniProt P03372); assay: ER binding assay (LanthaScreen TR-FRET ER Alpha Competitive Binding); details: Fluormone ES2 Green tracer 3 nM, 2 h room temperature
Experimental: ER binding assay: ERα binding was assessed using the LanthaScreen® TR-FRET ER Alpha Competitive Binding kit from ThermoFisherScientific. In this assay, a terbium-labeled anti-GST antibody was used to indirectly label GST-tagged ER Alpha-ligand binding domain (LBD) by binding to its GST tag. Competitive binding to the ER Alpha-LBD (GST) was detected by a test compound's ability to displace a fluorescent ligand (Fluormone™ ES2 Green tracer) from the ER Alpha-LBD (GST), which results in a loss of FRET signal between the Tb-anti-GST antibody and the tracer. Briefly, to assess ER binding of the DDC compounds, the test compounds (top dose 10 μM, 4 fold serial dilution, 8 point dose response) and controls were transferred to the assay plate. The Fluormone™ ES2 Green tracer (3 nM final concentration with assay buffer) was added to the assay plate. This was followed by addition of a mixture of the ER Alpha-LBD (GST) and terbium anti-GST antibody. After a 2 h incubation period at room temperature, the plate was read on the Envision plate reader and the TR-FRET ratio of 520:495 emissions were calculated and used to determine the IC50 from a dose response curve of the compound.

ER = ER (Homo sapiens (Human), UniProt P03372); assay: ER antagonism assay; type: cell-based; details: SK-BR-3 cells transfected with ERE plasmid and ER, 100 nM β-Estradiol, 24 h
Chain of ER (P03372 whole entry, looked up): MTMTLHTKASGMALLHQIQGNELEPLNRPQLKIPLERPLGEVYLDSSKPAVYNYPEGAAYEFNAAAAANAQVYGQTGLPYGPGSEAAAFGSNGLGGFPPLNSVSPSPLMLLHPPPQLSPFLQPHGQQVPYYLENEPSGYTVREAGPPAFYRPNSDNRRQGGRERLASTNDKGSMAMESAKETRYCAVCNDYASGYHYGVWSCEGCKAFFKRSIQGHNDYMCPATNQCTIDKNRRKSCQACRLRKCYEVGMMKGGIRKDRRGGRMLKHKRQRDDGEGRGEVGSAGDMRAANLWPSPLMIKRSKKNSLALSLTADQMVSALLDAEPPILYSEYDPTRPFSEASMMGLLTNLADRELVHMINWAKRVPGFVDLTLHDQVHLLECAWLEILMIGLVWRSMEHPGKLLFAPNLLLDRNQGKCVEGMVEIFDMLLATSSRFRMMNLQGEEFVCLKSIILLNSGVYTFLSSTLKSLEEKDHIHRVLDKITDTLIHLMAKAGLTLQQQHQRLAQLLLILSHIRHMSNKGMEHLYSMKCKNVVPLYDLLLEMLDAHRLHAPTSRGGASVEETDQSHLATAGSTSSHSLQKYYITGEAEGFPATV
Experimental: ER antagonism assay: To evaluate ER antagonist activity, SK-BR-3 cells were seeded at a density of 30000 cells/well in the assay plate. The assay plate was then incubated at 37° C., 5% CO2 for 24 h. A mixture of ERE plasmid and ER in opti-MEM media was incubated with lipofectamine 3000 in Opti-MEM media and incubated at room temperature for 15 mins. 10 μl of this transfection mix was added to each well of the assay plate and the assay plate was incubated at 37° C., 5% CO2 for 24 h. 100 nM β-Estradiol in 10 μL medium or 10 μL medium (control wells) was added to corresponding wells of assay plate and incubated at 37° C. 5% CO2 for 24 h. After the incubation period, 50 μl of Dual-glo luciferase reagent was added to the assay plate and mixed at room temperature for 20 mins on an orbital shaker, before reading out on the EnVision plate reader. 50 μL of Stop & Glo reagent was added to assay plate, mixed at room temperature for 20 minutes, and read on the Envision plate reader.

MCF7 cells = assay: Cell viability assay, MCF7; type: cell-based; details: Homo sapiens
Experimental: (§1) Cell viability assay: LNCap, 22Rv1, MCF7, MDAMB361, T47D, and IEC6 cells are seeded at a density of 500-2000 cells/well in 96 well plates, and a ‘T0’ (timepoint 0) was included along with the assay plate. The plates are then incubated at 37° C., 5% CO2 in a cell culture incubator overnight. On the next day, the ‘T0’ plate was assayed using CellTiterGlo (Promega, Inc) according to the manufacturer's instructions. The appropriate compounds are diluted in DMSO and added to the assay plate (final DMSO concentration of 0.1-0.2%) on the next day. The assay plates are incubated for 6 days at 37° C., 5% CO2. After the incubation period, the plates are assayed using CellTiterGlo (Promega, Inc) according to the manufacturer's instructions and luminescence was read on the EnVision plate reader. Inhibition of the tested compounds was determined by the following formula: Inhibition rate (%)=(1−(RLU compound−RLU day0)/(RLU control−RLU day0))*100%. GraphPadPrism was used to analyze the data and determine GI50/IC50 values.

MDAMB361 cells = assay: Cell viability assay, MDAMB361; type: cell-based; details: Homo sapiens
Experimental: as §1

IEC6 cells = assay: Cell viability assay, IEC6; type: cell-based; details: Rattus norvegicus
Experimental: as §1

LNCap cells = assay: Cell viability assay, LNCap; type: cell-based; details: Homo sapiens, 144 h; LNCap cells, 6 days, CellTiterGlo; read-out: LNCap (GI50)
Experimental: as §1

T47D cells = assay: Cell viability assay, T47D; type: cell-based; details: Homo sapiens, 144 h; T47D cells, 6 days, CellTiterGlo; read-out: T47D (GI50)
Experimental: as §1

[2] = MCF7, 144 h, read-out: MCF7 (GI50, nM)
[3] = MDA-MB-361, 144 h, read-out: MDA-MB-361 (GI50, nM)

Chain of ER Alpha-ligand binding domain (LBD) (P03372 whole entry, looked up, the tested form may be a part): as the sequence (P03372 whole entry, looked up) above

SMILES | IC50 [1] | IC50 (ER) | GI50 (MCF7 cells; [2]) | GI50 (MDAMB361 cells; [3]) | IC50 (IEC6 cells; IEC-6, 144 h, read-out: IEC-6 (IC50, nM)) | GI50 (LNCap cells) | GI50 (T47D cells) | GI50 (MCF7 cells; 144 h, MCF7 cells, 6 days, CellTiterGlo, read-out: MCF7 (GI50)) | GI50 (MDAMB361 cells; 144 h, MDA-MB-361 cells, 6 days, CellTiterGlo, read-out: MDA-MB-361 (GI50)) | IC50 (IEC6 cells; 144 h, IEC-6 cells, 6 days, CellTiterGlo, read-out: IEC-6 (IC50))
CC[C@@]1(O)C(=O)OCc2c1cc1n(c2=O)Cc2cc3c(CN(C)C)c(OC(=O)N4CCN(CCCCCCOc5cc(F)c(C6c7[nH]c8ccccc8c7CC(C)N6CC(C)(C)F)c(F)c5)CC4)ccc3nc2-1 (stereo in doubt) [Compound 13, (S)-10-((Dimethylamino)methyl)-4-ethyl-4-hydroxy-3,14-dioxo-3,4,12,14-tetrahydro-1H-pyrano[3′,4′:6,7]indolizino[1,2-b]quinolin-9-yl 4-(6-(3,5-difluoro-4-((1S,3S)-2-(2-fluoro-2-methylpropyl)-3-methyl-2,3,4,9-tetrahydro-1H-pyrido[3,4-b]indol-1-yl)phenoxy)hexyl)piperazine-1-carboxylate] | 10 to 500 nM | 10 to 500 nM | 10 to 500 nM | 10 to 500 nM | 501 to 1000 nM |  |  |  |  | 
CCc1c2c(nc3ccc(OC(=O)N4CCN(C(=O)CCCCCOc5cc(F)c([C@@H]6c7[nH]c8ccccc8c7C[C@@H](C)N6CC(C)(C)F)c(F)c5)CC4)cc13)-c1cc3c(c(=O)n1C2)COC(=O)[C@]3(O)CC [Compound 1, (S)-4,11-diethyl-4-hydroxy-3,14-dioxo-3,4,12,14-tetrahydro-1H-pyrano[3′,4′:6,7]indolizino[1,2-b]quinolin-9-yl 4-(6-(3,5-difluoro-4-((1R,3R)-2-(2-fluoro-2-methylpropyl)-3-methyl-2,3,4,9-tetrahydro-1H-pyrido[3,4-b]indol-1-yl)phenoxy)hexanoyl)piperazine-1-carboxylate] | < 10 nM | 10 to 500 nM | 10 to 500 nM | 10 to 500 nM |  |  |  |  |  | 
CCc1c2c(nc3ccc(OC(=O)N4CCN(CCCCCCOc5cc(F)c([C@@H]6c7[nH]c8ccccc8c7C[C@@H](C)N6CC(C)(C)F)c(F)c5)CC4)cc13)-c1cc3c(c(=O)n1C2)COC(=O)[C@]3(O)CC [Compound 2, (S)-4,11-diethyl-4-hydroxy-3,14-dioxo-3,4,12,14-tetrahydro-1H-pyrano[3′,4′:6,7]indolizino[1,2-b]quinolin-9-yl 4-(6-(3,5-difluoro-4-((1R,3R)-2-(2-fluoro-2-methylpropyl)-3-methyl-2,3,4,9-tetrahydro-1H-pyrido[3,4-b]indol-1-yl)phenoxy)hexyl)piperazine-1-carboxylate] | < 10 nM | 10 to 500 nM | 10 to 500 nM | 10 to 500 nM |  |  |  |  |  | 
CC[C@@]1(O)C(=O)OCc2c1cc1n(c2=O)Cc2cc3c(CN4CCN(C(=O)CCCCCN(C)c5ccc([C@H]6C[C@@]7(C)[C@@H](CC[C@]7(OC(C)=O)C(C)=O)[C@@H]7CCC8=CC(=O)CCC8=C76)cc5)CC4)c(O)ccc3nc2-1 [Compound 19, (8S,11R,13S,14S,17R)-17-Acetyl-11-(4-((6-(4-(((S)-4-ethyl-4,9-dihydroxy-3,14-dioxo-3,4,12,14-tetrahydro-1H-pyrano[3′,4′:6,7]indolizino[1,2-b]quinolin-10-yl)methyl)piperazin-1-yl)-6-oxohexyl)(methyl)amino)phenyl)-13-methyl-3-oxo-2,3,6,7,8,11,12,13,14,15,16,17-dodecahydro-1H-cyclopenta[a]phenanthren-17-yl Acetate] |  |  |  |  |  | 10 to 500 nM | 10 to 500 nM | 10 to 500 nM | 10 to 500 nM | > 1000 nM
